For this assay, the system named is Tobacco mosaic virus. Kind of assay: Antiviral activity against Tobacco mosaic virus after 72 hrs by half-leaf juice rubbing method. It is filed as functional. Also noted: concentration or dose not given beside the values.
Compound `NC(=O)c1nc(-c2nn[nH]c2-c2ccccc2)n(COCCO)n1` showed an Activity of 36%. The result for `Cc1ccc(-c2[nH]nnc2-c2nc(C(N)=O)nn2COCCO)cc1` reads 28%; that for `COc1ccc(-c2[nH]nnc2-c2nc(C(N)=O)nn2COCCO)cc1`, 39%. Then `CCCCc1ccc(-c2[nH]nnc2-c2nc(C(N)=O)nn2COCCO)cc1`, with 22%.

`CCCCCc1ccc(-c2[nH]nnc2-c2nc(C(N)=O)nn2COCCO)cc1` came in with an Activity of 44%. The compound `NC(=O)c1nc(-c2nn[nH]c2-c2ccc(F)cc2)n(COCCO)n1` registered an Activity of 29%. As for `NC(=O)c1nc(-c2nn[nH]c2-c2ccccc2C(F)(F)F)n(COCCO)n1`, the Activity is given as 17%. On to `NC(=O)c1nc(-c2nn[nH]c2-c2cccc(C(F)(F)F)c2)n(COCCO)n1`, for which the Activity is given as 16%. In turn, `NC(=O)c1nc(-c2nn[nH]c2-c2ccc(C(F)(F)F)cc2)n(COCCO)n1` came in with an Activity of 30%. Compound `NC(=O)c1nc(-c2nn[nH]c2-c2cccs2)n(COCCO)n1` returned an Activity of 14%. Compound `CCCCCc1[nH]nnc1-c1nc(C(N)=O)nn1COCCO` came in with an Activity of 34%. Consider `NC(=O)c1nc(-c2nn[nH]c2C2=CCCCC2)n(COCCO)n1`, for which the Activity came out at 23%. Take `NC(=O)c1ncn([C@@H]2O[C@H](CO)[C@@H](O)[C@H]2O)n1` [RIBAVIRIN]: the Activity is reported as 39%.
